Holding throughout (type): cell-based
One experiment concerns the target T1, human CRF2α receptor (Homo sapiens, UniProt Q13324).
T1 construct: expressed in transfected cells; host or cells: TeloHEAC
T1 sequence (Q13324 1-411): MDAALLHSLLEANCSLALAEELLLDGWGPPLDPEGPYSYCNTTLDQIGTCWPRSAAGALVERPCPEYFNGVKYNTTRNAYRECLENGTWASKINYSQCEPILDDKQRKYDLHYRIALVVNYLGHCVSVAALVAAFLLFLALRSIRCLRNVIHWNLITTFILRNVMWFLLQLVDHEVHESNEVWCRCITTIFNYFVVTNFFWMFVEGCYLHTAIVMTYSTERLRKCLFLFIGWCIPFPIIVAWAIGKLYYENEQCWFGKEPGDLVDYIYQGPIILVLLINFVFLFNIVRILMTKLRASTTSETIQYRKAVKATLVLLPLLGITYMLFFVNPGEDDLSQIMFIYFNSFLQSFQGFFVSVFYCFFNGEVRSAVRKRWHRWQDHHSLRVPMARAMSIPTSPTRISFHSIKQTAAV
Put plainly: cAMP agonism at human CRF2 α receptor in TeloHEAC cells (Example 7). The conditions noted are these: cAMP HTRF, TeloHEAC cells stably expressing human CRF2 α. Summed up: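 HTRF ratio 665/620 nm, read 1 h after lysis reagents, reports cAMP. Cells: thawed stocks, 2000/well, 30 min RT with compound in HBSS, 20 mM HEPES, 0 or 0.1% HSA, 2 mM IBMX. Activity normalised to UCN2 1000 nM = 100%; EC50 from half-maximal activation.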

In the next experiment the target is T2, CRF1R receptor (Homo sapiens, UniProt P34998).
T2 construct: host or cells: CHO-K1 clone 2
T2 sequence (P34998 24-415): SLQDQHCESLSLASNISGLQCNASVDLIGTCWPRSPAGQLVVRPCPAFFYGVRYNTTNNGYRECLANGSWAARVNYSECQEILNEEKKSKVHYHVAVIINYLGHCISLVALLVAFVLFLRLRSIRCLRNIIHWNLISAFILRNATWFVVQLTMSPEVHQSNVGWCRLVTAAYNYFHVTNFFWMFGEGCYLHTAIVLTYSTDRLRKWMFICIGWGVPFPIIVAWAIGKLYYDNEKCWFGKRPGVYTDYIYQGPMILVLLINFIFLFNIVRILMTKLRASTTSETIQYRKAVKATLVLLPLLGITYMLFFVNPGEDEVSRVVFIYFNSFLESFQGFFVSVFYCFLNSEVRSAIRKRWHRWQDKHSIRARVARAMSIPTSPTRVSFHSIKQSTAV
Put plainly: cAMP activity at anti-target CRF1R, CRF1R-overexpression CHO cell line (Example 9). The conditions noted are these: CRF1R-overexpression CHO cell line; for EC50: 0% HSA; for Emax: read-out: Emax (%). Summed up:
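Using thawed CRF1R-overexpressing CHO cells at 2000 per well, compound is applied for 30 min at RT in HBSS/HEPES buffer with IBMX. Cellular cAMP content is determined via HTRF, and percent activity is calculated against 1000 nM UCN2 defined as 100%.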

Another experiment has as its system rat CRF2R α receptor. Description: cAMP agonism at rat CRF2R α receptor in A7R5 rat aortic smooth muscle cells (Example 8). The conditions noted are these: cAMP HTRF, A7R5 rat aortic smooth muscle cell line, 0% HSA. An outline of the steps:
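Potency (EC50) is the concentration reaching half-maximal activation, with responses scaled so that 1000 nM urocortin 2 equals 100%. Intracellular cAMP was quantified by homogeneous time-resolved fluorescence at 665/620 nm, 1 h after lysis-buffer reagents. Compound stimulation lasted 30 min at room temperature on 2000 IBMX-treated (2 mM) cells per well in HEPES-buffered HBSS.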
(TR-FRET usually uses a lanthanide donor and a delayed reading to cut background.)

[1] abbreviates: 0% HSA, read-out: EC50 [nM], 0% HSA.
Where [2] appears, read: 0.1% HSA, read-out: EC50 [nM], 0.1% HSA.

The structures appear in SMILES notation. Where two headings read alike, the source gives them in different places. Starred links: 1 amine or outer side, 2 acyl side, 3 side chain; linkers in the order of their positions; H or OH if unused. Non-standard residues stand in square brackets, D forms with d. Residues, ends and D or L forms follow the SMILES beside them. Groups on a side chain read outwards from the residue. *: point of attachment. C20 diacid = O=C(O)CCCCCCCCCCCCCCCCCCC(=O)*; C18 diacid = O=C(O)CCCCCCCCCCCCCCCCC(=O)*; γGlu = O=C(O)[C@H](CCC(=O)[*:2])N[*:1]; AEEA = NCCOCCOCC(=O)O; Aib = CC(C)(N)C(=O)O

What is called EC50 is the midpoint of the concentration-response curve. As a reminder, the Emax is the greatest response seen or fitted, relative to the assay's reference. As for `CC[C@H](C)[C@H](N)C(=O)N[C@H](C(=O)N[C@@H](CC(C)C)C(=O)N[C@@H](CO)C(=O)N[C@@H](CC(C)C)C(=O)N[C@@H](CC(=O)O)C(=O)N[C@H](C(=O)N1CCC[C@H]1C(=O)N[C@H](C(=O)N[C@@H](CCCCN)C(=O)N[C@@H](CC(C)C)C(=O)N[C@@H](CCCCNC(=O)COCCOCCNC(=O)COCCOCCNC(=O)CC[C@H](NC(=O)CCCCCCCCCCCCCCCCCCC(=O)O)C(=O)O)C(=O)N[C@@H](CCC(N)=O)C(=O)N[C@H](C(=O)N[C@@H](CC(C)C)C(=O)N[C@@H](CC(C)C)C(=O)N[C@@H](CCC(=O)O)C(=O)N[C@@H](CCC(N)=O)C(=O)N[C@@H](CCC(=O)O)C(=O)N[C@@H](CCCNC(=N)N)C(=O)N[C@@H](CCC(N)=O)C(=O)N[C@@H](CCCCN)C(=O)N[C@@H](CCCCN)C(=O)N[C@@H](CCC(N)=O)C(=O)N[C@@H](CCCNC(=N)N)C(=O)N[C@@H](CCC(=O)O)C(=O)N[C@@H](CCC(N)=O)C(=O)N[C@@H](C)C(=O)N[C@@H](CCC(=O)O)C(=O)N[C@H](C(=O)N[C@@H](CC(N)=O)C(=O)NC(C)(C)C(=O)N[C@@H](CCC(N)=O)C(=O)N[C@H](C(=O)N[C@@H](CC(C)C)C(=O)N[C@@H](C)C(=O)N[C@@H](CCC(N)=O)C(=O)N[C@H](C(N)=O)C(C)C)[C@@H](C)CC)[C@@H](C)O)[C@@H](C)CC)[C@@H](C)O)C(C)C)C(C)C` [compound 80] (H-IVLSLDVPTKLK([AEEA-AEEA-γGlu-C20 diacid])QILLEQERQKKQREQAETN[Aib]QILAQV-NH2), the EC50 is 0.9 nM on human CRF2α receptor (setting [1]), 92.5 nM on human CRF2α receptor (setting [2]), > 1000 nM at CRF1R receptor and 5.2 nM with rat CRF2R α receptor. Moreover, on CRF1R receptor, the Emax is 12.7%.
Consider `CC[C@H](C)[C@H](N)C(=O)N[C@H](C(=O)N[C@@H](CC(C)C)C(=O)N[C@@H](CO)C(=O)N[C@@H](CC(C)C)C(=O)N[C@@H](CC(=O)O)C(=O)N[C@H](C(=O)N1CCC[C@H]1C(=O)N[C@H](C(=O)N[C@@H](CCCCN)C(=O)N[C@@H](CC(C)C)C(=O)N[C@@H](CCCCNC(=O)COCCOCCNC(=O)COCCOCCNC(=O)CC[C@H](NC(=O)CCCCCCCCCCCCCCCCC(=O)O)C(=O)O)C(=O)N[C@@H](CCC(N)=O)C(=O)N[C@H](C(=O)N[C@@H](CC(C)C)C(=O)N[C@@H](CC(C)C)C(=O)N[C@@H](CCCCN)C(=O)N[C@@H](CCC(N)=O)C(=O)N[C@@H](CCC(=O)O)C(=O)N[C@@H](CCCNC(=N)N)C(=O)N[C@@H](CCC(N)=O)C(=O)N[C@@H](CCCCN)C(=O)N[C@@H](CCCCN)C(=O)N[C@@H](CCC(N)=O)C(=O)N[C@@H](CCCNC(=N)N)C(=O)N[C@@H](CCC(=O)O)C(=O)N[C@@H](CCC(N)=O)C(=O)N[C@@H](C)C(=O)N[C@@H](CCC(=O)O)C(=O)N[C@H](C(=O)N[C@@H](CC(N)=O)C(=O)N[C@@H](CCCCN)C(=O)N[C@@H](CCC(N)=O)C(=O)N[C@H](C(=O)N[C@@H](CC(C)C)C(=O)N[C@@H](C)C(=O)N[C@@H](CCC(N)=O)C(=O)N[C@H](C(N)=O)C(C)C)[C@@H](C)CC)[C@@H](C)O)[C@@H](C)CC)[C@@H](C)CC)C(C)C)C(C)C` [compound 85] (H-IVLSLDVPIKLK([AEEA-AEEA-γGlu-C18 diacid])QILLKQERQKKQREQAETNKQILAQV-NH2; N-terminus assumed), for which the EC50 is 0.1 nM at human CRF2α receptor (setting [1]), 3.58 nM at human CRF2α receptor (setting [2]), > 1000 nM on CRF1R receptor and 0.73 nM in the experiment with rat CRF2R α receptor. Also, at CRF1R receptor, the Emax was 0.14%.
Turning to `CC[C@H](C)[C@H](N)C(=O)N[C@H](C(=O)N[C@@H](CC(C)C)C(=O)N[C@@H](CO)C(=O)N[C@@H](CC(C)C)C(=O)N[C@@H](CC(=O)O)C(=O)N[C@H](C(=O)N1CCC[C@H]1C(=O)N[C@H](C(=O)N[C@@H](CCCCN)C(=O)N[C@@H](CC(C)C)C(=O)N[C@@H](CCCCNC(=O)COCCOCCNC(=O)COCCOCCNC(=O)CC[C@H](NC(=O)CCCCCCCCCCCCCCCCC(=O)O)C(=O)O)C(=O)N[C@@H](CCC(N)=O)C(=O)N[C@H](C(=O)N[C@@H](CC(C)C)C(=O)N[C@@H](CC(C)C)C(=O)N[C@@H](CCCCN)C(=O)N[C@@H](CCC(N)=O)C(=O)N[C@@H](CCC(=O)O)C(=O)N[C@@H](CCCNC(=N)N)C(=O)N[C@@H](CCC(N)=O)C(=O)N[C@@H](CCCCN)C(=O)N[C@@H](CCCCN)C(=O)N[C@@H](CCC(N)=O)C(=O)N[C@@H](CCCNC(=N)N)C(=O)N[C@@H](CCC(=O)O)C(=O)N[C@@H](CCC(N)=O)C(=O)N[C@@H](C)C(=O)N[C@@H](CCCCN)C(=O)N[C@H](C(=O)N[C@@H](CC(N)=O)C(=O)N[C@@H](CCCCN)C(=O)N[C@@H](CCC(N)=O)C(=O)N[C@H](C(=O)N[C@@H](CC(C)C)C(=O)N[C@@H](C)C(=O)N[C@@H](CCC(N)=O)C(=O)N[C@H](C(N)=O)C(C)C)[C@@H](C)CC)[C@@H](C)O)[C@@H](C)CC)[C@@H](C)CC)C(C)C)C(C)C` [compound 86] (H-IVLSLDVPIKLK([AEEA-AEEA-γGlu-C18 diacid])QILLKQERQKKQREQAKTNKQILAQV-NH2; N-terminus assumed), the EC50 on human CRF2α receptor (setting [1]) is 0.11 nM; on human CRF2α receptor (setting [2]), 5.7 nM; on CRF1R receptor, > 1000 nM; with rat CRF2R α receptor, 0.69 nM. In addition, at CRF1R receptor, the Emax is 15.9%.
Turning to `CC[C@H](C)[C@H](N)C(=O)N[C@H](C(=O)N[C@@H](CC(C)C)C(=O)N[C@@H](CO)C(=O)N[C@@H](CC(C)C)C(=O)N[C@@H](CC(=O)O)C(=O)N[C@H](C(=O)N1CCC[C@H]1C(=O)N[C@H](C(=O)N[C@@H](CCCCN)C(=O)N[C@@H](CC(C)C)C(=O)N[C@@H](CCCCNC(=O)COCCOCCNC(=O)COCCOCCNC(=O)CC[C@H](NC(=O)CCCCCCCCCCCCCCCCC(=O)O)C(=O)O)C(=O)N[C@@H](CCC(N)=O)C(=O)N[C@H](C(=O)N[C@@H](CC(C)C)C(=O)N[C@@H](CC(C)C)C(=O)N[C@@H](CCCCN)C(=O)N[C@@H](CCC(N)=O)C(=O)N[C@@H](CCC(=O)O)C(=O)N[C@@H](CCCNC(=N)N)C(=O)N[C@@H](CCC(N)=O)C(=O)N[C@@H](CCCCN)C(=O)N[C@@H](CCCCN)C(=O)N[C@@H](CCC(N)=O)C(=O)N[C@@H](CCCNC(=N)N)C(=O)N[C@@H](CCC(=O)O)C(=O)N[C@@H](CCCCN)C(=O)N[C@@H](C)C(=O)N[C@@H](CCCCN)C(=O)N[C@H](C(=O)N[C@@H](CC(N)=O)C(=O)N[C@@H](CCCCN)C(=O)N[C@@H](CCC(N)=O)C(=O)N[C@H](C(=O)N[C@@H](CC(C)C)C(=O)N[C@@H](C)C(=O)N[C@@H](CCC(N)=O)C(=O)N[C@H](C(N)=O)C(C)C)[C@@H](C)CC)[C@@H](C)O)[C@@H](C)CC)[C@@H](C)CC)C(C)C)C(C)C` [compound 87] (H-IVLSLDVPIKLK([AEEA-AEEA-γGlu-C18 diacid])QILLKQERQKKQREKAKTNKQILAQV-NH2; N-terminus assumed), the EC50 on human CRF2α receptor (setting [1]) was 0.23 nM; at human CRF2α receptor (setting [2]) it was 16.2 nM; on CRF1R receptor, > 1000 nM; in the experiment with rat CRF2R α receptor, 1.49 nM. In addition, the Emax on CRF1R receptor is -0.2%.

Source of the values: US12679878B2, “CRF2 receptor agonists and their use in therapy” (SANOFI, priority 2020, dated 2026).
